Here are results for 6 compounds from US20230276703A1, “ORGANIC SEMICONDUCTOR MATERIAL” (The University of Tokyo, priority 2020, published 2023).

A short description of the series: Solvent solubility evaluation in o-dichlorobenzene. It counts as physicochemical. The settings on record: heated at 100° C., visual confirmation of dissolution, (w/Vd)×100. The method, then: Approximately 1 mg of each compound (accurate weight was w (mg)) was weighed in a sample tube, and 20 μL of o-dichlorobenzene was added thereto by using a micropipette. The sample tube was capped and heated at 100° C. by a hot plate. Whether or not the compound was dissolved was visually confirmed. When the compound was not dissolved, the operation of adding o-dichlorobenzene in an amount of 20 μL per addition until the compound was dissolved and heating to 100° C. was repeated.
The solubility (wt. %) of the compound was calculated based on the following formula. Note that V in the formula is a volume (μL) of the o-dichlorobenzene added to dissolve the compound, and d is a density (g/cm^3) of the o-dichlorobenzene.
Solubility (%)=(w/Vd)×100
As for `O=C1c2ccc3c4ncc5c6c(ccc(c7ncc(c2c37)C(=O)N1CCc1ccccc1)c64)C(=O)N(CCc1ccccc1)C5=O` [Compound (IX), reference compound], the “Solubility (%)” value is given as less than 0.0007%. On to `CCCCCCN1C(=O)c2cnc3c4c(C#N)cc5c6c(cnc(c7c(C#N)cc1c2c37)c64)C(=O)N5CCCCCC` [Compound (VIII)], for which the “Solubility (%)” value amounted to 0.52%. Next, `CCCCCCCCN1C(=O)c2ccc3c4ncc5c6c(ccc(c7ncc(c2c37)C1=O)c64)C(=O)N(CCCCCCCC)C5=O` [Compound (X), reference compound]: 0.019%; `CCCN1C(=O)c2cnc3c4c(C#N)cc5c6c(cnc(c7c(C#N)cc1c2c37)c64)C(=O)N5CCC` [Compound (VI)]: 0.027%. As for `CCCCCCCCN1C(=O)c2cnc3c4ccc5c6c(cnc(c7ccc1c2c73)c64)C(=O)N5CCCCCCCC` [Compound (II)], the “Solubility (%)” value is recorded as 0.58%. Next, `CCCCCCCCN1C(=S)c2cnc3c4ccc5c6c(cnc(c7ccc1c2c73)c64)C(=S)N5CCCCCCCC` [Compound (III)]: 0.49%.
